Like-named read-outs stand apart in the source and are kept apart here.

Holding throughout (type): cell-based, rat
Assay [1] has as its system Hepatocytes. Put plainly: Viability of post-anaerobic hepatocytes (fraction of cytosolic lactate dehydrogenase retained intracellularly). The note with it: for viability at 5000 µM: Rattus norvegicus, Hepatocyte, 1.5 h, read-out: SURVIVING FRACTION; for MEAN SURVIVING FRACTION: glycine 20 mM, mixture less than 5 mM total, 90 min anaerobic then 90 minute aerobic incubation, untreated .384. The method, then:
Both perfusates were introduced in situ at a rate of 20 ml/minute. The liver was dispersed by several passages through a glass pipette tip (4 mm aperture), subsequently filtered through two layers of a 250 micron Nylon mesh, and diluted in 50 ml of a chilled suspension medium of the BSS containing 1.3 mM CaCl2, 1.3 mM MgCl2, 20 mM glucose, and 5 mM pyruvate. The crude suspension was purified by differential centrifugation (100 g per 2 minutes).
The purified cell suspension, consisting primarily of liver parenchymal cells, was washed three times with the cold suspension medium. The final pellet was resuspended at a concentration of 20 mg cell protein (Biuret assay) per milliliter of suspension medium and incubated aerobically for one hour at 24° C. in a 50 ml polypropylene centrifuge tube mounted horizontally on the rocker tray of a shaking water bath (30 strokes per minute). At the end of this incubation period, hepatocyte viability was assessed by trypan blue exclusion.
Samples of the purified cell suspension were then transferred to two 50 ml polypropylene test tubes. One of these tubes was purged of oxygen by flushing the gas phase with argon and then permitting the cells to consume the residual oxygen in the medium. […] This anaerobic suspension was maintained in a 37° C.. water bath without agitation.
The other test tube was supplemented with oxygen by flushing the gas phase with pure oxygen. Diffusion of oxygen from the gas phase to this aerobic reference cell suspension was encouraged by orienting the tube in such a fashion as to maximize surface area and by gently agitating the suspension in the 37° C.. water bath. After 90 minutes, both suspension were removed from the water bath and the cells were washed two times with an ice cold suspension buffer and then resuspended in a warm, aerated suspension medium to a concentration of 10 mg cell protein.
A one milliliter sample of the anaerobic suspension was added to 4 ml of warm, aerated suspension medium containing either no additives (for the untreated cells), or a single amino carboxylic acid at a concentration of 5 mM. Cell viability was assessed in each test population at the end of a subsequent 90 minute aerobic incubation at 37° C. by measuring the fraction of cytosolic lactate dehydrogenase activity retained intracellularly.
Cell viability was assessed as the fraction of the cytosolic enzyme, lactate dehydrogenase, retained intracellularly following a 90 minute aerobic incubation. A minimum of four observations were made and recorded.
Hepatocytes were incubated anaerobically for 90 minutes, then washed and resuspended in fresh medium containing either no additives (untreated cells), trifluoperazine (25 μM), glycine (20 mM or 150 mg per 100 ml), or a mixture of amino carboxylic acids (total amino carboxylic acid concentration was less than 5 mM or 65 mg per 100 ml). Cell viability was assessed as the fraction of lactate dehydrogenase retained intracellularly following a 90 minute aerobic incubation. A minimum of four observations were made and recorded.
Hepatocytes were incubated anaerobically for 90 minutes, then washed and resuspended in fresh medium containing either no additives (for the untreated cells), neomycin sulfate (10 mM), glycine (20 mM or 150 mg per 100 ml), or the mixture of amino carboxylic acids (total amino carboxylic acid concentration was less than 5 mM or 65 mg per 100 ml). Cell viability was assessed as the fraction of lactate dehydrogenase retained intracellularly following a 90 minute aerobic incubation. A minimum of four observations were made and recorded.

The subject of assay [2] is glycogen phosphorylase a. The experiment in a line: Intracellular calcium activity in post-anaerobic hepatocytes, expressed as glycogen phosphorylase a activity. The conditions noted are these: mmols of PO^−3 liberated from glucose-1-phosphate per 1 million viable post-anaerobic cells; chlorpromazine 25 μM, glycine 20 mM, mixture less than 5 mM total; untreated 165.5. Here is the method: Kinase is stimulated by increased intracellular calcium concentration via calmodulin. […] Thera., Vol. 238, pp. 186-191, 1986. […] Cell viability was assessed as the fraction of lactate dehydrogenase retained intracellularly following a 90 minute aerobic incubation. Intracellular calcium activity was assessed in these post-anaerobic cells by the method described in Long and Moore, supra, and expressed in terms of glycogen phosphorylase a activity. […] A minimum of four observations were made and recorded.
(In general: Calcium assays in cells follow changes in intracellular calcium, usually with a dye or a luminescent sensor.)

Assay [3] relates to Hepatocytes. Put plainly: Viability of post-anaerobic hepatocytes (fraction of cytosolic lactate dehydrogenase retained intracellularly). The conditions noted are these: glycine 20 mM, mixture less than 5 mM total, 90 min anaerobic then 90 minute aerobic incubation.
Where [4] appears, read: single amino carboxylic acid at 5 mM, 90 min anaerobic, then 90 minute aerobic incubation at 37° C., untreated 0.25.
Where [5] appears, read: Table 4, neomycin sulfate 10 mM.
The mark [6] stands for this setting: Table 2, chlorpromazine 25 μM, mean with standard deviation, untreated .342.
[7] abbreviates: Table 5, alpha tocopherol succinate 100 mg per 100 ml, untreated .352.
The mark [8] stands for this setting: Table 6, desferrioxamine 25 μM, untreated .363.

With `CC[C@H](C)[C@H](N)C(=O)O` [Isoleucine, isoleucine, reference compound], the viability at 5000 µM in assay [1] (setting [4]) was 29%.
On the same count and under the same terms, the figure for `NC(=O)C[C@H](N)C(=O)O` [Asparagine, asparagine] is 54%.
Take `NCC(=O)O` [Glycine, glycine]: the viability at 5000 µM in assay [1] (setting [4]) worked out at 53%. Besides, the “MEAN SURVIVING FRACTION” value in assay [1] (Table 3, trifluoperazine 25 μM) is listed as “.739 ± .014”; in assay [1] (setting [5]) it was “.694 ± .033”; in assay [3] (setting [6]), “.698 ± .065”; in assay [3] (setting [7]), “.749 ± .020”; in assay [3] (setting [8]) it was “.696 ± .038”. The “GLYCOGEN PHOSPHORYLASE A ACTIVITY” value in assay [2] is 124.8 ± 22.9 mmols.
On to `CC(C)[C@H](N)C(=O)O` [Valine, valine, reference compound], for which the viability at 5000 µM in assay [1] (setting [4]) was 28%.
On the same count and under the same terms, the figure for `CC(C)C[C@H](N)C(=O)O` [Leucine, leucine, reference compound] is 32%.
In the case of `CC(=O)N(O)CCCCCNC(=O)CCC(=O)N(O)CCCCCNC(=O)CCC(=O)N(O)CCCCCN` [Desferrioxamine, desferrioxamine, reference compound], the “MEAN SURVIVING FRACTION” value in assay [3] (setting [8]) is given as “.393 ± .029”.
For the compound `CN(C)CCCN1c2ccccc2Sc2ccc(Cl)cc21` [Chlorpromazine, chlorpromazine, reference compound], in assay [3] (setting [6]), the “MEAN SURVIVING FRACTION” value is on record as “.567 ± .055”.
In the case of `O=C(O)[C@@H]1CCCN1` [Proline, proline], the viability at 5000 µM in assay [1] (setting [4]) is 49%.
Consider `N=C(N)NCCC[C@H](N)C(=O)O` [Arginine, arginine], for which the viability at 5000 µM in assay [1] is 51%.
Take `N[C@@H](Cc1c[nH]cn1)C(=O)O` [Histidine, histidine]: the viability at 5000 µM in assay [1] (setting [4]) was 50%.
With `C[C@H](N)C(=O)O` [Alanine, alanine], in assay [1] (setting [4]), the viability at 5000 µM came to 51%.
As for `N[C@@H](CCC(=O)O)C(=O)O` [Glutamic acid, glutamic acid], in assay [1], the viability at 5000 µM is 52%.
Turning to `N[C@@H](CO)C(=O)O` [Serine, serine], the viability at 5000 µM in assay [1] (setting [4]) is 40%.
The same measure, in the same setting: the figure for `N[C@@H](Cc1ccc(O)cc1)C(=O)O` [Tyrosine, tyrosine, reference compound] is 31%.
On to neomycin sulfate [reference compound], for which the “MEAN SURVIVING FRACTION” value in assay [1] (setting [5]) was “.566 ± .043”.
As for `Cc1c(C)c2c(c(C)c1O)CC[C@@](C)(CCC[C@H](C)CCC[C@H](C)CCCC(C)C)O2` [alpha-tocopherol, reference compound], the “MEAN SURVIVING FRACTION” value in assay [3] (setting [7]) is on record as “.421 ± .087”.
With `CN1CCN(CCCN2c3ccccc3Sc3ccc(C(F)(F)F)cc32)CC1` [Trifluoperazine, trifluoperazine, reference compound], the “MEAN SURVIVING FRACTION” value in assay [1] (Table 3, trifluoperazine 25 μM) was “.550 ± .061”.
Take `NC(=O)CC[C@H](N)C(=O)O` [Glutamine, glutamine]: the viability at 5000 µM in assay [1] (setting [4]) turned out to be 52%.

For the origin of these results see patent publication US6380254B2, “Method and composition for treating and preventing pathogenic effects caused by intracellular calcium overload” (Leigh Biotechnology, Inc., priority 1994, dated 2002).
